The target of assay [1] is T1, hSERT (Homo sapiens, UniProt P31645). The assay is described as follows: hSERT neurotransmitter uptake assay (3H-5-HT), Assay 2. On the set-up: expressed in transfected cells; host or cells: HEK-293. Format: cell-based. Conditions: serotonin reuptake inhibition, 3H-5-HT uptake, HEK-293 hSERT cells (values without asterisk); read-out: SERT pIC50 (converted). On the procedure: (§1) Cells were harvested by centrifugation at 1100 rpm for 5 minutes, washed once by resuspension in PBS, then centrifuged. The supernatant was discarded and the cell pellet resuspended, by gentle trituration, in room temperature Krebs-Ringer bicarbonate buffer containing HEPES (10 mM), CaCl2 (2.2 mM), ascorbic acid (200 μM) and pargyline (200 μM), pH 7.4.
(§2) Test compounds were incubated for 30 minutes at 37° C. with the respective cells, prior to addition of radiolabeled neurotransmitter, ^3H-5-HT (20 nM final concentration), ^3H-NE (50 nM final concentration) or ^3H-DA (100 nM final concentration).

The target of assay [2] is T2, hNET (Homo sapiens, UniProt P23975). The assay is described as follows: hNET neurotransmitter uptake assay (3H-NE), Assay 2. On the set-up: expressed in transfected cells; host or cells: HEK-293. Format: cell-based. Conditions: norepinephrine reuptake inhibition, 3H-NE uptake, HEK-293 hNET cells (values without asterisk); read-out: NET pIC50 (converted). On the procedure:
as §1, §2

For assay [3], the target named is T2, hNET. The assay is described as follows: hNET membrane radioligand binding assay (3H-nisoxetine), Assay 1.
Protocol: (§3) Membrane radioligand binding assays were used to measure inhibition of labeled ligand (^3H-citalopram or ^3H-nisoxetine or ^3H-WIN35428) binding to membranes prepared from cells expressing the respective human recombinant transporter (hSERT or hNET or hDAT) in order to determine the pKi values of test compounds at the transporters.
(§4) Recombinant human embryonic kidney (HEK-293) derived cell lines stably transfected with hSERT or hNET, respectively, were grown in DMEM medium supplemented with 10% dialyzed FBS (for hSERT) or FBS (for hNET), 100 μg/mL penicillin, 100 μg/mL streptomycin, 2 mM L-glutamine and 250 μg/mL of the aminoglycoside antibiotic G418, in a 5% CO2 humidified incubator at 37° C. When cultures reached 80% confluence, the cells were washed thoroughly in PBS (without Ca^2+ and Mg^2+) and lifted with 5 mM EDTA in PBS. Cells were pelleted by centrifugation, resuspended in lysis buffer (10 mM Tris-HCl, pH7.5 containing 1 mM EDTA), homogenized, pelleted by centrifugation, then resuspended in 50 mM Tris-HCl, pH 7.5 and 10% sucrose at 4° C. Protein concentration of the membrane suspension was determined using a Bio-Rad Bradford Protein Assay kit. Membranes were snap frozen and stored at −80° C.
(§5) Binding assays were performed in a 96-well assay plate in a total volume of 200 μl assay buffer (50 mM Tris-HCl, 120 mM NaCl, 5 mM KCl, pH 7.4) with 0.5, 1, and 3 μg membrane protein, for SERT, NET and DAT, respectively.
(§6) Stock solutions (10 mM in DMSO) of test compound were prepared and serial dilutions made using Dilution Buffer (50 mM Tris-HCl, 120 mM NaCl, 5 mM KCl, pH 7.4, 0.1% BSA, 400 μM ascorbic acid).
(§7) Following a 60 minute incubation at 22° C. (or a period sufficient to reach equilibrium), the membranes were harvested by rapid filtration over a 96-well UniFilter GF/B plate, pretreated with 0.3% polyethyleneimine, and washed 6 times with 300 μl wash buffer (50 mM Tris-HCl, 0.9% NaCl, pH 7.5 at 4° C.). Plates were dried overnight at room temperature, approximately 45 μl of MicroScint™-20 (Perkin Elmer) added and bound radioactivity quantitated via liquid scintillation spectroscopy. Inhibition curves and saturation isotherms were analyzed using GraphPad Prism Software package (GraphPad Software, Inc., San Diego, Calif.). IC50 values were generated from concentration response curves using the Sigmoidal Dose Response (variable slope) algorithm in Prism GraphPad.
The target of assay [4] is T1, hSERT. The experiment in a line: hSERT membrane radioligand binding assay (3H-citalopram), Assay 1. Particulars: SERT pKi, hSERT HEK-293 membranes, 1.0 nM 3H-citalopram; values given as lower bounds.
Protocol: as §3, §4, §5, §6, §7

Some results are limits rather than exact numbers.

T2 sequence (P23975 whole entry): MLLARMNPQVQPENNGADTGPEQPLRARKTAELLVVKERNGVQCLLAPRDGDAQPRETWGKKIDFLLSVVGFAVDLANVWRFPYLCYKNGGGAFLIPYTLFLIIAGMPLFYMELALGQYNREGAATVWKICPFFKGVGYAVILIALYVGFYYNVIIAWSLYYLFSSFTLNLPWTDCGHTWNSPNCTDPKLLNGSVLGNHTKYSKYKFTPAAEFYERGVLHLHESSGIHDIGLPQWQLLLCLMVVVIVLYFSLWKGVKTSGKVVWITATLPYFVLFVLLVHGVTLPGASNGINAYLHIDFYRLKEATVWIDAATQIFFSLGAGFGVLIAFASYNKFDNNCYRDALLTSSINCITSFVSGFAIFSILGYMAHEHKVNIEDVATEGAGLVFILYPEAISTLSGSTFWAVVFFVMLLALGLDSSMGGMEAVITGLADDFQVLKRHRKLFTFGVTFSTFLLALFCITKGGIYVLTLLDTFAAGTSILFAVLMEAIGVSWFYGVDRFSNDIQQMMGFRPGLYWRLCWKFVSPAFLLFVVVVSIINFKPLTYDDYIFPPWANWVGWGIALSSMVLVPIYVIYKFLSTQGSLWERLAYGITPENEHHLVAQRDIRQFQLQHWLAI
T1 sequence (P31645 whole entry): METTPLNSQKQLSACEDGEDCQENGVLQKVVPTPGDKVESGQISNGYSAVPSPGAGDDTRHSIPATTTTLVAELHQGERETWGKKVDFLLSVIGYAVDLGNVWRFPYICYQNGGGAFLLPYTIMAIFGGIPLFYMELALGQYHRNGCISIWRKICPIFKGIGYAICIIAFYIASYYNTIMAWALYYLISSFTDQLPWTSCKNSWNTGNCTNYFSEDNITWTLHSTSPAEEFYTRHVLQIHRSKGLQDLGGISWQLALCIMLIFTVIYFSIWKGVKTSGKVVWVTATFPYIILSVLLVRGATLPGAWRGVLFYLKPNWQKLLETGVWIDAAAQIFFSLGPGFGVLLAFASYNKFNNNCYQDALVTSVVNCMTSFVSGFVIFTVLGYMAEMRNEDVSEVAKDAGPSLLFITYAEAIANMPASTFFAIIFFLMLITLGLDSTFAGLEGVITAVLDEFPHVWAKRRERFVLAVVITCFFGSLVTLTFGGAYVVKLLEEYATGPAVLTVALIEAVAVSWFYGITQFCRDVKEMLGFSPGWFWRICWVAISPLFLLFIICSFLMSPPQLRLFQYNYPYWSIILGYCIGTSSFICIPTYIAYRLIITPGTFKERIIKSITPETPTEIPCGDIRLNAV

Regarding `CC[C@@H](Oc1cccc(Cl)c1C(F)(F)F)[C@@H]1CCNC1` [Example 2-72, (R)-3-[(R)-1-(3-Chloro-2-trifluoromethylphenoxy)propyl]pyrrolidine], the IC50 in assay [1] and in assay [2] was no more than 0.1 µM throughout. In addition, the Ki in assay [3] and in assay [4] was no more than 0.01 µM in each case.
`CC(C)C[C@H](Oc1ccccc1F)[C@H]1CCNC1` [Example 10-1, (S)-3-[(S)-1-(2-Fluorophenoxy)-3-methylbutyl]pyrrolidine]: the IC50 in assay [1] was no more than 0.1 µM; in assay [2], no more than 0.01 µM. For the same compound, the Ki in assay [3] and in assay [4] was no more than 0.01 µM throughout.
Regarding `Fc1cc(O[C@H](C2CC2)[C@H]2CCNC2)ccc1Cl` [Example 16-91, (S)-3-[(R)-(4-Chloro-3-fluorophenoxy)cyclopropylmethyl]pyrrolidine], the IC50 in assay [1] and in assay [2] was no more than 0.01 µM in each case. Moreover, the Ki in assay [3] and in assay [4] was no more than 0.01 µM each time.
As for `CCC[C@@H](Oc1ccccc1Cl)[C@H]1CCNC1` [Example 4-20, (S)-3-[(R)-1-(2-Chlorophenoxy)butyl]pyrrolidine], the values for the IC50 in assay [1] and in assay [2] were no more than 0.1 µM and no more than 0.01 µM, respectively. Further, the inhibition constant Ki in assay [3] and in assay [4] was no more than 0.01 µM each time.
Consider `CCc1cc(F)ccc1O[C@H](C1CC1)[C@H]1CCNC1` [Example 16-33, (S)-3-[(R)cyclopropyl-(2-ethyl-4-fluorophenoxy)-methyl]pyrrolidine], for which the IC50 in assay [1] is no more than 0.1 µM; in assay [2], no more than 0.01 µM. For the same compound, the figures for the Ki in assay [3] and in assay [4] were no more than 0.01 µM and no more than 0.1 µM, respectively.
With `CC(C)CC(Oc1cc(Cl)cc(Cl)c1)C1CCNC1` (stereo not shown) [Example 10-78, 3-[1-(3,5-Dichlorophenoxy)-3-methylbutyl]pyrrolidine], the IC50 in assay [1] and in assay [2] was no more than 0.01 µM each time. Further, the Ki in assay [3] and in assay [4] was no more than 0.01 µM each time.
Turning to `C=CC[C@H](Oc1cccc(Cl)c1C)[C@H]1CCNC1` [Example 24, (S)-3-[(S)-1-(3-Chloro-2-methylphenoxy)but-3-enyl]-pyrrolidine], the IC50 in assay [1] and in assay [2] was no more than 0.01 µM in each case. Further, the Ki in assay [3] and in assay [4] was no more than 0.01 µM each time.
On to `CC(C)C[C@@H](Oc1ccc(Cl)cc1)[C@H]1CCNC1` [Example 10-11, (S)-3-[(R)-1-(4-Chlorophenoxy)-3-methylbutyl]pyrrolidine], for which the IC50 in assay [1] and in assay [2] was no more than 0.01 µM in each case. Also, the Ki in assay [3] and in assay [4] was no more than 0.01 µM in each case.
Take `CC[C@H](Oc1ccc(Cl)cc1OC)[C@H]1CCNC1` [Example 2-68, (S)-3-[(S)-1-(4-Chloro-2-methoxyphenoxy)propyl]pyrrolidine]: the IC50 in assay [1] and in assay [2] was no more than 0.01 µM in each case. The Ki in assay [3] and in assay [4] was no more than 0.01 µM throughout.
Regarding `CC[C@H](Oc1c(F)ccc(F)c1Cl)[C@H]1CCNC1` [Example 2-40, (S)-3-[(S)-1-(2-Chloro-3,6-difluorophenoxy)propyl]pyrrolidine], the IC50 was no more than 0.1 µM in assay [1] and no more than 0.01 µM in assay [2]. Further, the Ki in assay [3] and in assay [4] was no more than 0.01 µM in each case.
For `CC(C)C(Oc1cccc(F)c1Cl)C1CCNC1` (stereo not shown) [Example 6-18, 3-[1-(2-Chloro-3-fluorophenoxy)-2-methylpropyl]pyrrolidine], the IC50 in assay [1] is no more than 0.1 µM; in assay [2], no more than 0.01 µM. The Ki in assay [3] and in assay [4] was no more than 0.01 µM each time.
Turning to `CC(C)C[C@H](Oc1cc(F)c(F)cc1F)[C@H]1CCNC1` [Example 10-57, (S)-3-[(S)-3-Methyl-1-(2,4,5-trifluorophenoxy)butyl]pyrrolidine], the IC50 is no more than 0.1 µM in assay [1] and no more than 0.01 µM in assay [2]. For the same compound, the Ki in assay [3] and in assay [4] was no more than 0.01 µM in each case.
Take `CCC[C@H](Oc1ccc(Cl)cc1Cl)[C@H]1CCNC1` [Example 4-28, (S)-3-[(S)-1-(2,4-Dichlorophenoxy)butyl]pyrrolidine]: the IC50 in assay [1] and in assay [2] was no more than 0.01 µM throughout. For the same compound, the Ki in assay [3] and in assay [4] was no more than 0.01 µM throughout.
In the case of `CC[C@H](Oc1ccc(Cl)c(F)c1Cl)[C@H]1CCNC1` [Example 2-42, (S)-3-[(S)-1-(2,4-Dichloro-3-fluorophenoxy)propyl]pyrrolidine], the IC50 in assay [1] and in assay [2] was no more than 0.01 µM throughout. Also, the Ki in assay [3] and in assay [4] was no more than 0.01 µM throughout.
On to `CCCC[C@@H](Oc1c(Cl)cccc1Cl)[C@H]1CCNC1` [Example 8-12, (S)-3-[(R)-1-(2,6-Dichlorophenoxy)pentyl]pyrrolidine], for which the IC50 in assay [1] is no more than 0.1 µM; in assay [2], no more than 0.01 µM. The Ki in assay [3] and in assay [4] was no more than 0.01 µM throughout.
In the case of `CC[C@H](Oc1ccc(Cl)cc1Cl)[C@H]1CCNC1` [Example 1, (S)-3-[(S)-1-(2,4-Dichlorophenoxy)propyl]pyrrolidine], the IC50 in assay [1] and in assay [2] was no more than 0.01 µM each time. The Ki in assay [3] and in assay [4] was no more than 0.01 µM throughout.
For the compound `CC(C)C[C@H](Oc1cccc(C(F)(F)F)c1Cl)[C@H]1CCNC1` [Example 10-30, (S)-3-[(S)-1-(2-Chloro-3-trifluoromethylphenoxy)-3-methylbutyl]pyrrolidine], the IC50 in assay [1] and in assay [2] was no more than 0.01 µM throughout. For the same compound, the Ki in assay [3] and in assay [4] was no more than 0.01 µM each time.
For the compound `COc1cc(Cl)ccc1O[C@H](C1CC1)[C@H]1CCNC1` [Example 16-38, (S)-3-[(R)-(4-Chloro-2-methoxyphenoxy)cyclopropylmethyl]pyrrolidine], the IC50 in assay [1] was no more than 0.01 µM; in assay [2], no more than 0.1 µM. For the same compound, the Ki in assay [3] and in assay [4] was no more than 0.01 µM throughout.
`CC[C@H](Oc1ccc(Cl)cc1)[C@H]1CCNC1` [Example 2-2, (S)-3-[(S)-1-(4-Chlorophenoxy)propyl]pyrrolidine]: the IC50 in assay [1] and in assay [2] was no more than 0.01 µM each time. In addition, the Ki in assay [3] and in assay [4] was no more than 0.01 µM throughout.
For `CC(C)C[C@H](Oc1c(Cl)cccc1Cl)[C@H]1CCNC1` [Example 10-54, (S)-3-[(S)-1-(2,6-Dichlorophenoxy)-3-methylbutyl]pyrrolidine], the IC50 in assay [1] and in assay [2] was no more than 0.01 µM each time. Besides, the Ki in assay [3] and in assay [4] was no more than 0.01 µM each time.
Consider `CC[C@H](Oc1c(F)cc(Cl)cc1F)[C@H]1CCNC1` [Example 2-48, (S)-3-[(S)-1-(4-Chloro-2,6-difluorophenoxy)propyl]pyrrolidine], for which the IC50 in assay [1] and in assay [2] was no more than 0.01 µM each time. Moreover, the Ki in assay [3] and in assay [4] was no more than 0.01 µM in each case.
Turning to `COc1c(O[C@@H](C2CC2)[C@H]2CCNC2)ccc(Cl)c1Cl` [Example 16-55, (S)-3-[(S)cyclopropyl-(3,4-dichloro-2-methoxyphenoxy)methyl]pyrrolidine], the IC50 in assay [1] and in assay [2] was no more than 0.01 µM in each case. Also, the Ki in assay [3] and in assay [4] was no more than 0.01 µM each time.
`CCC[C@H](Oc1ccc(F)c(F)c1F)[C@H]1CCNC1` [Example 4-50, (S)-3-[(S)-1-(2,3,4-Trifluorophenoxy)butyl]pyrrolidine]: the values for the IC50 in assay [1] and in assay [2] were no more than 0.1 µM and no more than 0.01 µM, respectively. Moreover, the Ki in assay [3] and in assay [4] was no more than 0.01 µM each time.
Consider `CC(C)CC(Oc1ccc(Cl)cc1C(F)(F)F)C1CCNC1` (stereo not shown) [Example 10-48, 3-[1-(4-Chloro-2-trifluoromethylphenoxy)-3-methylbutyl]pyrrolidine], for which the IC50 in assay [1] and in assay [2] was no more than 0.01 µM in each case. Moreover, the Ki in assay [3] and in assay [4] was no more than 0.01 µM throughout.
In the case of `CCC[C@@H](Oc1cccc(Cl)c1Cl)[C@H]1CCNC1` [Example 4-23, (S)-3-[(R)-1-(2,3-Dichlorophenoxy)butyl]pyrrolidine], the IC50 in assay [1] and in assay [2] was no more than 0.01 µM each time. The Ki in assay [3] and in assay [4] was no more than 0.01 µM in each case.
Regarding `CCC[C@H](Oc1ccccc1Cl)[C@H]1CCNC1` [Example 4-19, (S)-3-[(S)-1-(2-Chlorophenoxy)butyl]pyrrolidine], the figures for the IC50 in assay [1] and in assay [2] were no more than 0.1 µM and no more than 0.01 µM, respectively. Besides, the inhibition constant (Ki) in assay [3] and in assay [4] was no more than 0.01 µM each time.
Consider `CC(C)C[C@@H](Oc1cccc(Cl)c1F)[C@H]1CCNC1` [Example 10-18, (S)-3-[(R)-1-(3-Chloro-2-fluorophenoxy)-3-methylbutyl]pyrrolidine], for which the IC50 in assay [1] and in assay [2] was no more than 0.01 µM each time. The Ki in assay [3] and in assay [4] was no more than 0.01 µM in each case.
Consider `Cc1ccc(O[C@@H](C2CC2)[C@H]2CCNC2)c(C)c1` [Example 16-28, (S)-3-[(S)cyclopropyl-(2,4-dimethylphenoxy)-methyl]pyrrolidine], for which the IC50 in assay [1] and in assay [2] was no more than 0.01 µM each time. Also, the Ki in assay [3] and in assay [4] was no more than 0.01 µM throughout.

For orientation: Ki means a measure of affinity in units of concentration, obtained from inhibition or displacement. Low values mean higher affinity, high ones lower affinity.

The values are drawn from patent US7994209B2, “3-phenoxymethylpyrrolidine compounds” (Theravance, Inc., priority 2009, dated 2011).
